Like-named read-outs stand apart in the source and are kept apart here.
Target: Nav 1.7 (Homo sapiens (Human), UniProt Q15858)
Test: in-vitro Nav 1.7 PX (IC50)
Format: cell-based
[1] = in-vitro Nav 1.7 PX data (PatchXpress)

Nav 1.7, sequence (Q15858 whole entry): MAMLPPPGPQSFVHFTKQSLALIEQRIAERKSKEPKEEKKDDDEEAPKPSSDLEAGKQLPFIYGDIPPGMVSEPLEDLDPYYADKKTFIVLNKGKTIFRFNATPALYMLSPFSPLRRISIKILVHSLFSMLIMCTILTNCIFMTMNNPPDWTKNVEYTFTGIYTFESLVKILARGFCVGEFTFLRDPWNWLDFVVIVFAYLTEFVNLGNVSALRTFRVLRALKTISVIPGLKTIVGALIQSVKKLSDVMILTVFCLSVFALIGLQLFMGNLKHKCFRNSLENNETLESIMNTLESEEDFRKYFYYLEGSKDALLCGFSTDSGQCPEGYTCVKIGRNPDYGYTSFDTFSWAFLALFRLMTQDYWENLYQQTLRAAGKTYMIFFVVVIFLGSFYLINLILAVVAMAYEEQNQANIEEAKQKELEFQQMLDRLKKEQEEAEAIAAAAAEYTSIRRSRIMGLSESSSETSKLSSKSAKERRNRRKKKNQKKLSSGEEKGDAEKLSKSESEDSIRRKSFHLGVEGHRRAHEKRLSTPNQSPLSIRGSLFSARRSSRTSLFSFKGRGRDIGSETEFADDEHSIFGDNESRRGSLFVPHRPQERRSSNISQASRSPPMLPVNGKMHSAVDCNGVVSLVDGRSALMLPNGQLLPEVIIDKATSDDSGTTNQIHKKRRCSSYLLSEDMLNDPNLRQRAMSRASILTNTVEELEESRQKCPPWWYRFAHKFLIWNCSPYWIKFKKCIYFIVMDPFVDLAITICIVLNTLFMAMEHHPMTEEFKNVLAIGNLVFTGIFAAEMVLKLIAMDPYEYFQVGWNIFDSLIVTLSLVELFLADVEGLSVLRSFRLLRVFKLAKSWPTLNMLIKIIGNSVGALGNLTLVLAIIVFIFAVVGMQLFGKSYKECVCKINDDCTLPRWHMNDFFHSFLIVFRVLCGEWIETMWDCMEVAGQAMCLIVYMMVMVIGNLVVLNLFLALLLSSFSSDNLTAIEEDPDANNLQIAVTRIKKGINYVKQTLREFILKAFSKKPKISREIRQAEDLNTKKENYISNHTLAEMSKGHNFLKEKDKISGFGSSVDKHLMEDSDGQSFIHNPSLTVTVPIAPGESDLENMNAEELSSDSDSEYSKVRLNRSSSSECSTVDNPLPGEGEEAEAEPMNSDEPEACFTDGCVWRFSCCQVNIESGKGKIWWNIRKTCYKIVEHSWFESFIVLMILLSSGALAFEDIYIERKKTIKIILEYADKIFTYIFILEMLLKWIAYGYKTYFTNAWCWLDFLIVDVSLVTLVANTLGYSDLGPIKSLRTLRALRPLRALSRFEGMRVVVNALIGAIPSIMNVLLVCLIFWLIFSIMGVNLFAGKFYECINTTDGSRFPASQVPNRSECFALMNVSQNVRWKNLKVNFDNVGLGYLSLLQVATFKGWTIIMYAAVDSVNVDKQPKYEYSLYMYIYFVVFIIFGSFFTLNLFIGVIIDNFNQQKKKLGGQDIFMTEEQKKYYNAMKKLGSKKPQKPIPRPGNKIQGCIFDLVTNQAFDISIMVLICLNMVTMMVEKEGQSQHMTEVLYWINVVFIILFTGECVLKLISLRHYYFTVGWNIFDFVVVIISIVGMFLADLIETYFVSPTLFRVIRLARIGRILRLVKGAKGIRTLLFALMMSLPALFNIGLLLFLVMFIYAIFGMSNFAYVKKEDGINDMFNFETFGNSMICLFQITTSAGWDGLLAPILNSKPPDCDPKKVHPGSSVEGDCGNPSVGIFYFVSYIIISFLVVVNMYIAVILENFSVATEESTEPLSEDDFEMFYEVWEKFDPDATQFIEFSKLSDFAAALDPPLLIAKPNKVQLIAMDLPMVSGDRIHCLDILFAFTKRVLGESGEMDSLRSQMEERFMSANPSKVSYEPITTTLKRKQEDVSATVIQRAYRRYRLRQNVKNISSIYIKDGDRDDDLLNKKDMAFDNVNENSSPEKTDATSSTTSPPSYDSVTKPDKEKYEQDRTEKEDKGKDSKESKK

Row | Compound | IC50 (in-vitro Nav 1.7 PX data) [nM] | also measured
1 | COc1ccc(-c2cc(F)cc(Cl)c2)cc1-n1c(=O)ccc2cc(S(=O)(=O)Nc3ccncn3)ccc21 [Example 610, 1-(3′-chloro-5′-fluoro-4-methoxy-3-biphenylyl)-2-oxo-N-4-pyrimidinyl-1,2-dihydro-6-quinolinesulfonamide] | 13 | –
2 | COc1cc(Cl)c(-c2cc(F)cc(Cl)c2)cc1-n1c(=O)ccc2cc(S(=O)(=O)Nc3ccon3)ccc21 [Example 613, 1-(3′,6-dichloro-5′-fluoro-4-methoxy-3-biphenylyl)-N-3-isoxazolyl-2-oxo-1,2-dihydro-6-quinolinesulfonamide] | 18 | –
3 | COc1cnc(Cl)cc1-n1c(=O)ccc2cc(S(=O)(=O)Nc3ccon3)ccc21 [Example 617, 1-(2-chloro-5-methoxy-4-pyridinyl)-N-3-isoxazolyl-2-oxo-1,2-dihydro-6-quinolinesulfonamide] | 3880 | –
4 | COc1cnc(-c2cc(F)cc(Cl)c2)cc1-n1c(=O)ccc2cc(S(=O)(=O)Nc3ccon3)ccc21 [Example 618, 1-(2-(3-chloro-5-fluorophenyl)-5-methoxy-4-pyridinyl)-N-3-isoxazolyl-2-oxo-1,2-dihydro-6-quinolinesulfonamide] | 605 | –
5 | COc1ccc(C2CCOCC2)cc1-n1c(=O)ccc2cc(S(=O)(=O)Nc3ccon3)ccc21 [Example 620, N-3-isoxazolyl-1-(2-methoxy-5-(tetrahydro-2H-pyran-4-yl)phenyl)-2-oxo-1,2-dihydro-6-quinolinesulfonamide] | 8100 | –
6 | Cc1cc(-c2cc(OCC#N)c(-n3c(=O)ccc4cc(S(=O)(=O)Nc5ccon5)ccc43)cc2F)ccc1Cl [Example 622, 1-(4′-chloro-5-(cyanomethoxy)-2-fluoro-3′-methyl-[1,1′-biphenyl]-4-yl)-N-(isoxazol-3-yl)-2-oxo-1,2-dihydroquinoline-6-sulfonamide] | – | IC50 [1]: 312 nM
7 | N#CCOc1cc(Br)c(F)cc1-n1c(=O)ccc2cc(S(=O)(=O)Nc3ccon3)ccc21 [Example 623, 1-(4-bromo-2-(cyanomethoxy)-5-fluorophenyl)-N-(isoxazol-3-yl)-2-oxo-1,2-dihydroquinoline-6-sulfonamide] | – | IC50 [1]: 7780 nM
8 | O=c1ccc2cc(S(=O)(=O)Nc3ccon3)ccc2n1-c1cc(F)c(-c2cc(F)cc(F)c2)cc1O [Example 624, N-(isoxazol-3-yl)-2-oxo-1-(2,3′,5′-trifluoro-5-hydroxy-[1,1′-biphenyl]-4-yl)-1,2-dihydroquinoline-6-sulfonamide] | – | IC50 [1]: 1730 nM
9 | O=c1ccc2cc(S(=O)(=O)Nc3ccon3)ccc2n1-c1cc(F)c(Br)cc1OC1CCNC1 (stereo not drawn) [Example 625, 1-(4-bromo-5-fluoro-2-(PYRROLIDIN-3-YLOXY)phenyl)-N-(isoxazol-3-yl)-2-oxo-1,2-dihydroquinoline-6-sulfonamide] | – | IC50 [1]: 5610 nM
10 | COc1cc(C#CC(F)(F)F)c(F)cc1-n1c(=O)ccc2cc(S(=O)(=O)Nc3ccon3)ccc21 [Example 644, 1-(5-fluoro-2-methoxy-4-(3,3,3-trifluoro-1-PROPYN-1-yl)phenyl)-N-3-isoxazolyl-2-oxo-1,2-dihydro-6-quinolinesulfonamide] | 387 | –
11 | COc1nc(C#CC2CCCC2)c(Cl)cc1-n1c(=O)ccc2cc(S(=O)(=O)Nc3cccnn3)ccc21 [Example 646, 1-(5-chloro-6-(cyclopentylethynyl)-2-methoxy-3-pyridinyl)-2-oxo-N-3-pyridazinyl-1,2-dihydro-6-quinolinesulfonamide] | 1100 | –
12 | COc1nc(NC2CCCC2)c(Cl)cc1-n1c(=O)ccc2cc(S(=O)(=O)Nc3ccon3)ccc21 [Example 648, 1-(5-chloro-6-(cyclopentylamino)-2-methoxy-3-pyridinyl)-N-3-isoxazolyl-2-oxo-1,2-dihydro-6-quinolinesulfonamide] | 984 | –
13 | COc1cc(-c2ccc(Cl)c(C)c2)ccc1-n1c(=O)ccc2cc(S(=O)(=O)Nc3cnccn3)ccc21 [Example 659, 1-(4′-chloro-3-methoxy-3′-methyl-4-biphenylyl)-2-oxo-N-2-pyrazinyl-1,2-dihydro-6-quinolinesulfonamide] | 35 | –
14 | O=c1ccc2cc(S(=O)(=O)Nc3ccon3)ccc2n1-c1cc(F)c(-c2cc(F)cc(F)c2)cc1OC1CNC1 [Example 670, 1-(5-(azetidin-3-yloxy)-2,3′,5′-trifluoro-[1,1′-biphenyl]-4-yl)-N-(isoxazol-3-yl)-2-oxo-1,2-dihydroquinoline-6-sulfonamide 2,2,2-trifluoroacetate] | – | IC50: 39 nM
15 | CC(C#N)Oc1cc(Br)c(F)cc1-n1c(=O)ccc2cc(S(=O)(=O)Nc3ccon3)ccc21 (stereo not drawn) [Example 680, 1-(4-bromo-2-(1-cyanoethoxy)-5-fluorophenyl)-N-(isoxazol-3-yl)-2-oxo-1,2-dihydroquinoline-6-sulfonamide] | – | IC50 [1]: 25400 nM
16 | CC(C#N)Oc1cc(-c2cc(F)cc(F)c2)c(F)cc1-n1c(=O)ccc2cc(S(=O)(=O)Nc3ccon3)ccc21 (stereo not drawn) [Example 681, 1-(5-(1-cyanoethoxy)-2,3′,5′-trifluoro-[1,1′-biphenyl]-4-yl)-N-(isoxazol-3-yl)-2-oxo-1,2-dihydroquinoline-6-sulfonamide] | 458 | –
17 | COc1ccc(-c2cc(OC)c(-n3c(=O)ccc4cc(S(=O)(=O)Nc5ccon5)ccc43)cc2F)c(Cl)c1 [Example 699, 1-(2′-chloro-2-fluoro-4′,5-dimethoxy-4-biphenylyl)-N-3-isoxazolyl-2-oxo-1,2-dihydro-6-quinolinesulfonamide] | 37 | –

Row | Compound | IC50 (in-vitro Nav 1.7 PX data) [nM] | also measured
18 | COc1cc(-c2cc(OC)c(-n3c(=O)ccc4cc(S(=O)(=O)Nc5ccon5)ccc43)cc2F)ccc1Cl [Example 700, 1-(4′-chloro-2-fluoro-3′,5-dimethoxy-4-biphenylyl)-N-3-isoxazolyl-2-oxo-1,2-dihydro-6-quinolinesulfonamide] | 5 | –
19 | COc1cc(-c2ccccc2)c(F)cc1-n1c(=O)ccc2cc(S(=O)(=O)Nc3ccon3)ccc21 [Example 701, 1-(2-fluoro-5-methoxy-4-biphenylyl)-N-3-isoxazolyl-2-oxo-1,2-dihydro-6-quinolinesulfonamide] | 104 | –
20 | COc1ccc(-c2cc(OC)c(-n3c(=O)ccc4cc(S(=O)(=O)Nc5ccon5)ccc43)cc2F)c(F)c1 [Example 702, 1-(2,2′-difluoro-4′,5-dimethoxy-4-biphenylyl)-N-3-isoxazolyl-2-oxo-1,2-dihydro-6-quinolinesulfonamide] | 22 | –
21 | COc1cc(-c2cccc(Cl)c2F)c(F)cc1-n1c(=O)ccc2cc(S(=O)(=O)Nc3ccon3)ccc21 [Example 703, 1-(3′-chloro-2,2′-difluoro-5-methoxy-4-biphenylyl)-N-3-isoxazolyl-2-oxo-1,2-dihydro-6-quinolinesulfonamide] | 5 | –
22 | COc1cc(-c2ccc(C)c(C)c2)c(F)cc1-n1c(=O)ccc2cc(S(=O)(=O)Nc3ccon3)ccc21 [Example 704, 1-(2-fluoro-5-methoxy-3′,4′-dimethyl-4-biphenylyl)-N-3-isoxazolyl-2-oxo-1,2-dihydro-6-quinolinesulfonamide] | 16 | –
23 | COc1ccc(-c2cc(OC)c(-n3c(=O)ccc4cc(S(=O)(=O)Nc5ccon5)ccc43)cc2F)cc1F [Example 705, 1-(2,3′-difluoro-4′,5-dimethoxy-4-biphenylyl)-N-3-isoxazolyl-2-oxo-1,2-dihydro-6-quinolinesulfonamide] | 41 | –
24 | COc1cc(-c2cc(C)cc(C)c2)c(F)cc1-n1c(=O)ccc2cc(S(=O)(=O)Nc3ccon3)ccc21 [Example 706, 1-(2-fluoro-5-methoxy-3′,5′-dimethyl-4-biphenylyl)-N-3-isoxazolyl-2-oxo-1,2-dihydro-6-quinolinesulfonamide] | 14 | –
25 | COc1cc(-c2cc(Cl)ccc2F)c(F)cc1-n1c(=O)ccc2cc(S(=O)(=O)Nc3ccon3)ccc21 [Example 707, 1-(5′-chloro-2,2′-difluoro-5-methoxy-4-biphenylyl)-N-3-isoxazolyl-2-oxo-1,2-dihydro-6-quinolinesulfonamide] | 12 | –
26 | COc1cc(C)cc(-c2cc(OC)c(-n3c(=O)ccc4cc(S(=O)(=O)Nc5ccon5)ccc43)cc2F)c1 [Example 708, 1-(2-fluoro-3′,5-dimethoxy-5′-methyl-4-biphenylyl)-N-3-isoxazolyl-2-oxo-1,2-dihydro-6-quinolinesulfonamide] | 10 | –
27 | COc1cccc(-c2cc(OC)c(-n3c(=O)ccc4cc(S(=O)(=O)Nc5ccon5)ccc43)cc2F)c1 [Example 709, 1-(2-fluoro-3′,5-dimethoxy-4-biphenylyl)-N-3-isoxazolyl-2-oxo-1,2-dihydro-6-quinolinesulfonamide] | 47 | –
28 | COc1cc(F)cc(-c2cc(OC)c(-n3c(=O)ccc4cc(S(=O)(=O)Nc5ccon5)ccc43)cc2F)c1 [Example 710, 1-(2,3′-difluoro-5,5′-dimethoxy-4-biphenylyl)-N-3-isoxazolyl-2-oxo-1,2-dihydro-6-quinolinesulfonamide] | 14 | –
29 | COc1cc(-c2cc(F)cc(C(F)(F)F)c2)c(F)cc1-n1c(=O)ccc2cc(S(=O)(=O)Nc3ccon3)ccc21 [Example 711, 1-(2,3′-difluoro-5-methoxy-5′-(trifluoromethyl)-4-biphenylyl)-N-3-isoxazolyl-2-oxo-1,2-dihydro-6-quinolinesulfonamide] | 9 | –
30 | COc1cc(-c2cccc(Cl)c2C)c(F)cc1-n1c(=O)ccc2cc(S(=O)(=O)Nc3ccon3)ccc21 [Example 712, 1-(3′-chloro-2-fluoro-5-methoxy-2′-methyl-4-biphenylyl)-N-3-isoxazolyl-2-oxo-1,2-dihydro-6-quinolinesulfonamide] | 6 | –
31 | COc1cc(-c2cc(OC)c(-n3c(=O)ccc4cc(S(=O)(=O)Nc5ccon5)ccc43)cc2F)ccc1F [Example 713, 1-(2,4′-difluoro-3′,5-dimethoxy-4-biphenylyl)-N-3-isoxazolyl-2-oxo-1,2-dihydro-6-quinolinesulfonamide] | 15 | –
32 | COc1ccc(C)cc1-c1cc(OC)c(-n2c(=O)ccc3cc(S(=O)(=O)Nc4ccon4)ccc32)cc1F [Example 714, 1-(2-fluoro-2′,5-dimethoxy-5′-methyl-4-biphenylyl)-N-3-isoxazolyl-2-oxo-1,2-dihydro-6-quinolinesulfonamide] | 48 | –
33 | COc1cc(-c2cc(C)cnc2OC)c(F)cc1-n1c(=O)ccc2cc(S(=O)(=O)Nc3ccon3)ccc21 [Example 715, 1-(5-fluoro-2-methoxy-4-(2-methoxy-5-methyl-3-pyridinyl)phenyl)-N-3-isoxazolyl-2-oxo-1,2-dihydro-6-quinolinesulfonamide] | 151 | –

Reference: US9212182B2, “Bicyclic sulfonamide compounds as sodium channel inhibitors” (AMGEN INC., priority 2013, dated 2015)
